Test results from patent US20100190688A1, “Tetrapeptide analogs” (priority 2004, published 2010).

What was measured:
BIR3 domain of rat XIAP = BIR3 domain of rat XIAP (Rattus norvegicus, UniProt Q9R0I6); test: Fluorescence polarization assay, binding to BIR3 from rat XIAP
Procedure: In fluorescence polarization assays a fluorescent probe is used. The binding affinity of compounds to BIR3 is measured by competitive displacement of a fluorescent probe using fluorescence polarization anisotropy. […] In other embodiments, the probe used is 6-(6-Hydroxy-3-oxo-3H-xanthen-9-yl)-N-(5-(2-methylamino-propionylamino)-6-oxo-6-[4-(1,2,3,4-tetrahydro-naphthalen-1-ylcarbamoyl)-thiazolidin-3-yl]-hexyl)-isophthalamic acid.
The binding affinity of compounds provided herein for rat BIR3 was measured by competitive displacement of a fluorescent probe using fluorescence polarization anisotropy. […] Control conditions were set up on each plate and include free probe 1 alone (5 nM), fully bound probe (5 μM BIR3+5 nM probe 1) and binding buffer blank. The-EC50 of binding was computed from a 4-parameter fit of the measured anisotropies using the SoftMax Pro 4.6 software package (Molecular Dynamics, Sunnyvale, Calif.).
Alternatively, probe 1 was substituted with probe 2: 6-(6-Hydroxy-3-oxo-3H-xanthen-9-yl)-N-{5-(2-methylamino-propionylamino)-6-oxo-6-[4-(1,2,3,4-tetrahydro-naphthalen-1-ylcarbamoyl)-thiazolidin-3-yl]-hexyl}-isophthalamic acid, for rat BIR3 and the concentrations of assay components changed. […] Controls were adjusted accordingly.

[1] = biological target: T1, BIR3-mediated Caspase-9 inhibition (UniProt Q9R0I6); test: Caspase-9 rescue assay (relief of BIR3-mediated Caspase-9 inhibition); assay type: biochemical, human Caspase-9; Rat or Chicken BIR3; settings: average EC50, substrate Ac-LEHD-amc, pH 6.5
T1 construct: Nothing is printed for this assay
Procedure: Additionally the compounds and compositions can be evaluated for their ability to achieve relief of BIR3-mediated Caspase-9 inhibition by measuring Caspase-9 reactivation. The fluorogenic substrate Ac-LEHD-7-amido-4-methylcoumarin is used in these methods. EC50 values of tested BIR3 inhibitors or Caspase-9 rescuers is calculated from the percentage of Caspase-9 reactivation in the mixtures containing serially diluted concentrations of tested compound. Typically, 10-point curves are generated for such EC50 determination.
Relief of BIR3-mediated Caspase-9 inhibition by BIR3 inhibitors was assayed by measuring Caspase-9 reactivation using the fluorogenic substrate Ac-LEHD-7-amido-4-methylcoumarin. A truncated form of human Caspase-9 that lacks the N-terminal Caspase recruitment domain (EPro-Caspase-9 or p35/p12) was used in the assay. This form of the enzyme has the full catalytic activity and the same substrate specificity as the full-length protein in the Apaf-1/Cytochrome C/dATP/Caspase-9 reconstituted system. Rat or Chicken BIR3 was used in this assay. […] This mixture was incubated for 40 min to allow equilibration at 25° C., and the assay progression was subsequently followed by monitoring the formation of fluorescent 7-amido-4-methylcoumarin over time at 460 nm using an excitation wavelength of 360 nm. […] EC50 values of tested BIR3 inhibitors or Caspase-9 rescuers were calculated from the percentage of Caspase-9 reactivation in the mixtures containing serially diluted concentrations of tested compound.

Sequence of BIR3 domain of rat XIAP (Q9R0I6 241-355): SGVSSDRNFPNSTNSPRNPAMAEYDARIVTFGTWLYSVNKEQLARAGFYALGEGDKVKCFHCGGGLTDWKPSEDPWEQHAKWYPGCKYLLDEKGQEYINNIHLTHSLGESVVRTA

Row | Compound | EC50 (BIR3 domain of rat XIAP) | EC50 [1]
1 | CN[C@@H](C)C(=O)N[C@H](C(=O)N[C@@H](CCCCNS(=O)(=O)c1ccc(C)cc1)C(=O)NC1CCCc2ccccc21)C(C)C (stereo in doubt) [2-[3-Methyl-2-(2-methylamino-propionylamino)-butyrylamino]-6-(toluene-4-sulfonylamino)-hexanoic acid (1,2,3,4-tetrahydro-naphthalen-1-yl)-amide] | < 1000 nM | < 1000 nM
2 | CC(NCC1CC1)C(=O)NC(C(=O)N1CCCC1C(=O)NC1CCCc2ccccc21)C(C)(C)C (stereo not drawn) [1-{2-[2-(Cyclopropylmethyl-amino)-propionylamino]-3,3-dimethyl-butyryl}-pyrrolidine-2-carboxylic acid (1,2,3,4-tetrahydro-naphthalen-1-yl)-amide] | < 1000 nM | 1000 to 10000 nM
3 | CNC(C)C(=O)NC(C(=O)N1CSCC1C(=O)NC1CCCc2ccccc21)C(C)C (stereo not drawn) [3-[3-Methyl-2-(2-methylamino-propionylamino)-butyryl]-thiazolidine-4-carboxylic acid (1,2,3,4-tetrahydro-naphthalen-1-yl)-amide] | < 1000 nM | < 1000 nM
4 | CNC(C)C(=O)NC(C(=O)N1CSCC1C(=O)NC(Cc1ccccc1)Cc1ccccc1)C(C)C (stereo not drawn) [3-[3-Methyl-2-(2-methylamino-propionylamino)-butyryl]-thiazolidine-4-carboxylic acid (1-benzyl-2-phenyl-ethyl)-amide] | < 1000 nM | < 1000 nM
5 | CNC(C)C(=O)NC(C(=O)N1CCCC1C(=O)NN(C)c1ccccc1)C(C)(C)C (stereo not drawn) [N-{2,2-Dimethyl-1-[2-(N′-methyl-N′-phenyl-hydrazinocarbonyl)-pyrrolidine-1-carbonyl]-propyl}-2-methylamino-propionamide] | < 1000 nM | 1000 to 10000 nM
6 | CNC(C)C(=O)NC1CCC(=O)N2CCC(C(=O)NC3CCCc4ccccc43)N2C1=O (stereo not drawn) [8-(2-Methylamino-propionylamino)-5,9-dioxo-hexahydro-pyrazolo[1,2-a][1,2]diazepine-1-carboxylic acid (1,2,3,4-tetrahydro-naphthalen-1-yl)-amide] | < 1000 nM | 1000 to 10000 nM
7 | CNC(C)C(=O)NC(C(=O)N(CCCCCNC(=O)OCc1ccccc1)CC(=O)NC1CCCc2ccccc21)C(C)C (stereo not drawn) [(5-{[3-Methyl-2-(2-methylamino-propionylamino)-butyryl]-[(1,2,3,4-tetrahydro-naphthalen-1-ylcarbamoyl)-methyl]-amino}-pentyl)-carbamic acid benzyl ester] | < 1000 nM | 1000 to 10000 nM
8 | CNC(C)C(=O)NC(C(=O)N1CCCC1C(=O)NCCC(c1ccccc1)c1ccccc1)C(C)(C)C (stereo not drawn) [1-[3,3-Dimethyl-2-(2-methylamino-propionylamino)-butyryl]-pyrrolidine-2-carboxylic acid (3,3-diphenyl-propyl)-amide] | 1000 to 10000 nM | > 10000 nM
9 | CNC(C)C(=O)NC(C(=O)NC(CCO)C(=O)NC1CCCc2ccccc21)C(C)C (stereo not drawn) [N-[3-Hydroxy-1-(1,2,3,4-tetrahydro-naphthalen-1-ylcarbamoyl)-propyl]-3-methyl-2-(2-methylamino-propionylamino)-butyramide] | < 1000 nM | 1000 to 10000 nM
